We go through 30 compounds from patent US8394969B2, “Cyclic benzimidazole derivatives useful as anti-diabetic agents” (Merck Sharp & Dohme Corp., priority 2008, dated 2013).

For the test, the target named is recombinant human AMPK complex 1 (containing α1β1γ1) (Homo sapiens, UniProt Q13131+Q9Y478). In words: […] (in vitro AMPK activation assay). It counts as biochemical. The settings on record: for Emax: basal activity subtracted. Here is the method: Recombinant viruses were generated by cotransfection of AMPK/pBacPak9 clones with Baculogold baculovirus DNA (Pharmingen) in spodoptera frugiperda 21 cells according to the manufacturer's instructions. Each round of virus amplification was performed for 5 days in Grace's medium containing 10% serum. Virus that had been subjected to three rounds of amplification was used for all protein production procedures. To express the AMPK complex, sf21 cells were adapted to serum free medium (SF900 II, Invitrogen) by sequential dilution from serum containing stocks into SF900 II medium and maintained in shaker flasks at 90 rpm at 27° C. The recombinant AMPK enzyme complex was produced by triple infection, one recombinant virus for each of the subunits, in sf21 cells under serum free conditions. […] Cells were harvested by centrifugation at 10,000×g for 15 minutes after 72 hours of infection with viruses. The insect cell pellet from 2 liters of culture was resuspended in 50 ml lysis buffer (20 mM Tris-HCl, 50 mM NaCl, 50 mM NaF, 30 mM Na PPi, 0.25 M sucrose, 10 mM ZnCl2, 2 mM DTT, 0.4 mg/ml digitonin) and subjected to two cycles of freeze-thaw lysis in a dry-ice ethanol bath. Insoluble material was removed by centrifugation at 10,000×g and the supernatant was fractionated with use of polyethylene glycol (PEG).
The total in vitro AMPK activation assay volume is 50 μl in a 96-well plate. […] The reaction was initiated with addition of the enzyme. After 30-minute incubation at 30° C., the reaction was stopped by addition of 80 μl 1% H3PO4. Aliquots (100 μl) were transferred to 96-well MultiScreen plates (MAPHNOB50; Millipore Corp., Bedford, Mass., USA). The plate was washed three times with 1% H3PO4 followed by detection in a Top-count. The counts per minute from the basal activity (the reaction without activator) was subtracted from each well and the data were expressed as % maximum AMP activation followed by EC50 calculation.

[1] abbreviates: recombinant human AMPK complex 1 (α1β1γ1), read-out: % Maximum AMP Activation of human AMPK Complex 1.
Setting [2] is: read-out: % Maximum AMP Activation of human AMPK Complex 1, recombinant human AMPK complex 1 (α1β1γ1).

Each structure is given as a SMILES string. Where a name gives a salt, the structure may show the parent alone. Read-outs that look alike come from different tables or passages of the source.

Chain of recombinant human AMPK complex 1 (containing α1β1γ1) (Q13131 whole entry): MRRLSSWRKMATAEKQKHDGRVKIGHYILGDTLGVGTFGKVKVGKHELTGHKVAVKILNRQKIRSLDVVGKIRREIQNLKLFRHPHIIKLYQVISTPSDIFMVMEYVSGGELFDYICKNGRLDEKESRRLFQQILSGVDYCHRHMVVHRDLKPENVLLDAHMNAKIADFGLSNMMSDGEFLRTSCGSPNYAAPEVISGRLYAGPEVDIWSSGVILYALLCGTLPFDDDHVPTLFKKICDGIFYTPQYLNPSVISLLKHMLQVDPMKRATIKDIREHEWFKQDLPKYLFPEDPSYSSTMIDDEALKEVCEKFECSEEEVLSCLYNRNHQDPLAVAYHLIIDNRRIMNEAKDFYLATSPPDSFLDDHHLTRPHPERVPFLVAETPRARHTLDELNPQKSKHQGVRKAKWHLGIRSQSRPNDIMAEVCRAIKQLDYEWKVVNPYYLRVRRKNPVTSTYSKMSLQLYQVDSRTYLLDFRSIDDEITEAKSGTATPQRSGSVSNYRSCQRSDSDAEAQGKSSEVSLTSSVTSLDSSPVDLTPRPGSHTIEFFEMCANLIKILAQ
Chain of recombinant human AMPK complex 1 (containing α1β1γ1) (Q9Y478 whole entry): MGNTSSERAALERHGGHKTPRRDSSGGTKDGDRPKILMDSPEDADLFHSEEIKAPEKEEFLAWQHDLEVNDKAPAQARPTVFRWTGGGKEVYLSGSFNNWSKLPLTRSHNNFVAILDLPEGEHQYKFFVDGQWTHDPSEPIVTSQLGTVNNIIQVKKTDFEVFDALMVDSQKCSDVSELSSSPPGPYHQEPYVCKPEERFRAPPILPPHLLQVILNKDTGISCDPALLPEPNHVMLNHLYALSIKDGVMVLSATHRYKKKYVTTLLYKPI
Chain of recombinant human AMPK complex 1 (containing α1β1γ1) (P54619 whole entry partner): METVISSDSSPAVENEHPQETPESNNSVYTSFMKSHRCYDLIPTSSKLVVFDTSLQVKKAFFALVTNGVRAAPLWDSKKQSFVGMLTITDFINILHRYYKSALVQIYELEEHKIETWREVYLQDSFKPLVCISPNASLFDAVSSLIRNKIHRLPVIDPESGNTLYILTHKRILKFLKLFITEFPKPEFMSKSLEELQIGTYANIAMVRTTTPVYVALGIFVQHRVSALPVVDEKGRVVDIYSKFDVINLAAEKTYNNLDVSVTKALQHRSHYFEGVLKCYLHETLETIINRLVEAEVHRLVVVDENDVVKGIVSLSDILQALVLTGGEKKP

As to `Cc1ccc(Oc2nc3cc(-c4ccc(C(C)N(C)C)cc4)c(Cl)cc3[nH]2)cc1C(=O)O` (stereo not drawn) [Example 292, 1-{4-[2-(3-carboxy-4-methylphenoxy)-6-chloro-1H-benzimidazol-5-yl]phenyl}-N,N-dimethylethanaminium trifluoroacetate], under setting [1], the Emax was above 80%. Turning to `Clc1cc2[nH]c(Oc3cccc(-c4nn[nH]n4)c3)nc2cc1-c1ccc(-c2ccccc2)cc1` [Example 33, 5-Biphenyl-4-yl-6-chloro-2-[3-(2H-tetrazol-5-yl)-phenoxy]-1H-benzoimidazol], under setting [1], the Emax is above 80%. In the case of `Cc1ccc(Oc2nc3cc(-c4cnc5c(ccn5C)c4)c(Cl)cc3[nH]2)cc1C(=O)O` [Example 144, 2-(3-carboxy-4-methylphenoxy)-6-chloro-5-(1-methyl-1H-pyrrolo[2,3-b]pyridin-5-yl)-1H-3,1-benzimidazol-3-ium chloride], the Emax under setting [1] is above 80%. On to `Cc1ccc(Oc2nc3cc(-c4cccc(C(C)C)c4)c(Cl)cc3[nH]2)cc1C(=O)O` [Example 339, Ammonium 5-{[6-chloro-5-(3-isopropylphenyl)-1H-benzimidazol-2-yl]oxy}-2-methylbenzoate], for which the Emax under setting [2] is above 80%.

Take `Cc1cc2cc(-c3cc4nc(Oc5ccc(C)c(C(=O)O)c5)[nH]c4cc3Cl)ccc2[nH]1` [Example 261, 5-{[6-chloro-5-(2-methyl-1H-indol-5-yl)-1H-benzimidazol-2-yl]oxy}-2-methylbenzoic acid]: the Emax under setting [1] was above 80%. For the compound `Cc1ccc(Oc2nc3cc(-c4ccc5c(c4)CC(=O)N5)c(Cl)cc3[nH]2)cc1C(=O)O` [Example 307, 5-[6-Chloro-5-(2-oxo-2,3-dihydro-1H-indol-5-yl)-1H-benzoimidazol-2-yloxy]-2-methyl-benzoic acid], under setting [1], the Emax was above 80%.

For the compound `COC(=O)c1cc(Oc2nc3cc(-c4ccc(-c5cccnc5)cc4)c(Cl)cc3[nH]2)ccc1C` [Example 171, 5-[6-Chloro-5-(4-pyridin-3-yl-phenyl)-1H-benzoimidazol-2-yloxy]-2-methyl-benzoic acid methyl ester], the Emax under setting [1] was above 80%.

In the case of `Cc1ccc(Oc2nc3cc(-c4ccc5onc(C)c5c4)c(Cl)cc3[nH]2)cc1C(=O)O` [Example 141, 5-[6-Chloro-5-(3-methyl-benzo[d]isoxazol-5-yl)-1H-benzoimidazol-2-yloxy]-2-methyl-benzoic acid], under setting [1], the Emax is above 80%. As for `COC(=O)c1c(C)cc(Oc2nc3cc(-c4ccc(-c5ccccc5)cc4)c(Cl)cc3[nH]2)cc1C(=O)O` [Example 12, 5-(5-Biphenyl-4-yl-6-chloro-1H-benzoimidazol-2-yloxy)-3-methyl-phthalic acid 2-methyl ester], the Emax under setting [1] is above 80%. As for `Cc1ccc(Oc2nc3cc(-c4ccc5ccnc(O)c5c4)c(Cl)cc3[nH]2)cc1C(=O)O` [Example 238, 5-[6-Chloro-5-(1-hydroxy-isoquinolin-7-yl)-1H-benzoimidazol-2-yloxy]-2-methyl-benzoic acid], the Emax under setting [1] was above 80%. `Cc1ccc(Oc2nc3cc(-c4ccc(-c5cccnc5)cc4)c(Cl)cc3[nH]2)cc1C(=O)O` [Example 169, 5-[6-Chloro-5-(4-pyridin-3-yl-phenyl)-1H-benzoimidazol-2-yloxy]-2-methyl-benzoic acid]: under setting [1], the Emax was above 80%. Regarding `Cc1ccc(Oc2nc3cc(-c4ccc(-c5ccccc5N)cc4)c(Cl)cc3[nH]2)cc1C(=O)O` [Example 205, 5-{[5-(2′-aminobiphenyl-4-yl)-6-chloro-1H-benzimidazol-2-yl]oxy}-2-methylbenzoic acid], under setting [1], the Emax is above 80%. As to `Cc1ccc(Oc2nc3cc(-c4ccc(-c5ccc(O)nc5)cc4)c(Cl)cc3[nH]2)cc1C(=O)O` [Example 188, 5-({6-chloro-5-[4-(6-hydroxypyridin-3-yl)phenyl]-1H-benzimidazol-2-yl}oxy)-2-methylbenzoic acid], the Emax under setting [1] was above 80%. Take `Cc1ccc(Oc2nc3cc(-c4ccc5c(c4)CN(C)C5)c(Cl)cc3[nH]2)cc1C(=O)O` [Example 300, 5-[2-(3-carboxy-4-methylphenoxy)-6-chloro-1H-benzimidazol-5-yl]-2-methyl-2,3-dihydro-1H-isoindolium trifluoroacetate]: the Emax under setting [1] was above 80%.

Turning to `O=C(O)c1ccc(Oc2nc3cc(-c4ccc(-c5ccccc5)cc4)c(Cl)cc3[nH]2)cc1Cl` [Example 39, 4-(5-Biphenyl-4-yl-6-chloro-1H-benzoimidazol-2-yloxy)-2-chloro-benzoic acid], the Emax under setting [1] was above 80%.

Turning to `Cc1ccc(Oc2nc3cc(-c4ccc(C(C)(C)N)cc4)c(Cl)cc3[nH]2)cc1C(=O)O` [Example 297, 2-{4-[2-(3-carboxy-4-methylphenoxy)-6-chloro-1H-benzimidazol-5-yl]phenyl}propan-2-aminium trifluoroacetate], the Emax under setting [1] is above 80%. With `Cc1ccc(Oc2nc3cc(-c4ccccc4C(C)C)c(Cl)cc3[nH]2)cc1C(=O)O` [Example 329, Ammonium 5-{[6-chloro-5-(2-isopropylphenyl)-1H-benzimidazol-2-yl]oxy}-2-methylbenzoate], the Emax under setting [2] is above 80%. Turning to `Cn1ccc2cc(-c3cc4nc(Oc5ccc(Cl)c(C(=O)O)c5)[nH]c4cc3Cl)ccc21` [Example 217, 2-Chloro-5-[6-chloro-5-(1-methyl-1H-indol-5-yl)-1H-benzoimidazol-2-yloxy]-benzoic acid], under setting [1], the Emax is above 80%. Regarding `Cc1ccc(Oc2nc3cc(-c4ccc(N(C)C)cc4)c(Cl)cc3[nH]2)cc1C(=O)O` [Example 318, 2-(3-carboxy-4-methylphenoxy)-6-chloro-5-[4-(dimethylamino)phen-yl]-1H-benzimidazol-3-ium chloride], the Emax under setting [1] is above 80%. On the same count and under the same terms, for `Cc1ccc(Oc2nc3cc(-c4ccc(N5CCOCC5)cc4)c(F)cc3[nH]2)cc1C(=O)O` [Example 247, 5-[6-Fluoro-5-(4-morpholin-4-yl-phenyl)-1H-benzoimidazol-2-yloxy]-2-methyl-benzoic acid] the value was above 80%; for `Cc1ccc(Oc2nc3cc(-c4ccc5c(c4)CCN5CCO)c(Cl)cc3[nH]2)cc1C(=O)O` [Example 319, 5-({6-chloro-5-[1-(2-hydroxyethyl)-2,3-dihydro-1H-indol-5-yl]-1 H-benzimidazol-2-yl}oxy)-2-methylbenzoic acid], above 80%; for `Cc1ccc(Oc2nc3cc(C#Cc4ccc(-n5cccn5)cc4)c(Cl)cc3[nH]2)cc1C(=O)O` [Example 71, 5-[6-Chloro-5-(4-pyrazol-1-yl-phenylethynyl)-1H-benzoimidazol-2-yloxy]-2-methyl-benzoic acid], above 80%.

`Cc1ccc(Oc2nc3cc(-c4cnn(CC(C)C)c4)c(Cl)cc3[nH]2)cc1C(=O)O` [Example 159, 5-[6-Chloro-5-(1-isobutyl-1H-pyrazol-4-yl)-1H-benzoimidazol-2-yloxy]-2-methyl-benzoic acid]: the Emax under setting [1] is above 80%. Same read-out and setting: for `Cc1ccc(Oc2nc3cc(-c4ccc5c(C)c[nH]c5c4)c(Cl)cc3[nH]2)cc1C(=O)O` [Example 291, 5-[6-Chloro-5-(3-methyl-1H-indol-6-yl)-1H-benzoimidazol-2-yloxy]-2-methyl-benzoic acid] the value was above 80%.

For the compound `CC(=O)Nc1cccc(Oc2nc3cc(-c4ccc(-c5ccccc5)cc4)c(Cl)cc3[nH]2)c1` [Example 3, N-[3-(5-Biphenyl-4-yl-6-chloro-1H-benzoimidazol-2-yloxy)-phenyl]-acetamide], under setting [1], the Emax is above 80%. Turning to `Cc1ccc(Oc2nc3cc(-c4ccc5c(c4)cc(C)n5C)c(Cl)cc3[nH]2)cc1C(=O)O` [Example 289, 5-[6-Chloro-5-(1,2-dimethyl-1H-indol-5-yl)-1H-benzoimidazol-2-yloxy]-2-methyl-benzoic acid], the Emax under setting [1] is above 80%. The term EC50 denotes the concentration needed to bring the measured effect to its halfway point. Consider `Cc1ccc(Oc2nc3cc(-c4ccc5c(ccn5C)c4)c(Cl)cc3[nH]2)cc1C(=O)O` [Example 229, 5-{[6-chloro-5-(1-methyl-1H-indol-5-yl)-1H-benzimidazol-2-yl]oxy}-2-methylbenzoic acid], for which the EC50 (recombinant human AMPK complex 1 (α1β1γ1), read-out: EC50) is 3 nM.

In the case of `Cc1ccc(Oc2nc3cc(C#Cc4ccc(-c5cc[nH]n5)cc4)c(Cl)cc3[nH]2)cc1C(=O)O` [Example 74, 5-{6-Chloro-5-[4-(1H-pyrazol-3-yl)-phenylethynyl]-1H-benzoimidazol-2-yloxy}-2-methyl-benzoic acid], the Emax under setting [1] was above 80%. `Cc1ccc(C#Cc2cc3nc(Oc4ccc(C)c(C(=O)O)c4)[nH]c3cc2Cl)cn1` [Example 132, 5-[6-Chloro-5-(6-methyl-pyridin-3-ylethynyl)-1H-benzoimidazol-2-yloxy]-2-methyl-benzoic acid]: under setting [1], the Emax is above 80%.

Turning to `NC(C(=O)O)c1ccc(Oc2nc3cc(-c4ccc(-c5ccccc5)cc4)c(Cl)cc3[nH]2)cc1` (stereo not drawn) [Example 18, Amino-[4-(5-biphenyl-4-yl-6-chloro-1H-benzoimidazol-2-yloxy)-phenyl]-acetic acid], the Emax under setting [1] is above 80%.
